# Reference: patent publication US12692223B2, “Phenyl-sulfamoyl-benzoic acid derivatives as ERAP1-modulators” (GREY WOLF THERAPEUTICS LIMITED, priority 2021, dated 2026)
# Target: T1, ERAP1 (Homo sapiens, UniProt Q9NZ08)
# T1 construct: Purified ERAP1(37-941)-10His (ERAP1)
# Assay: ERAP1 mediated hydrolysis of an amide substrate measured in a biochemical system (10-mer inhibition assay)
# Settings: purified ERAP1(37-941)-10His; 10-mer substrate; 23° C. for 1 h; excitation 279 nm, emission 355 nm; read-out: IC50 vs Decapeptide WRVYEKC(Dnp)ALK-acid (where Dnp is Dinitrophenyl maleimide) (10-mer)
# Method: Biological Assay 1: ERAP1 Mediated Hydrolysis of an Amide Substrate Measured in a Biochemical System
# • 1× Assay buffer (AB): 25 mM Bis-tris propane, 0.05% w/v • Hydroxypropylmethylcellulose pH 7.75 made with Optima grade water • Decapeptide WRVYEKC(Dnp)ALK-acid (where Dnp is Dinitrophenyl maleimide) (10-mer) • L-Leucine 7-amido-4-methylcoumarin (L-AMC) • Purified ERAP1(37-941)-10His (ERAP1) Assay Procedure:
# 12.5 μL ERAP1 enzyme in 1×AB was combined with 250 nL test compound in DMSO. 12.5 μL of either 240 μM L-AMC in 1×AB or 100 μM 10-mer in 1×AB was added to the reaction and incubated at 23° C. for 1 h. For detection, plates were read at excitation 365 nm and emission 442 nm (L-AMC) or excitation 279 nm and emission 355 nm (10-mer). Compound IC50 was determined using a 4-parameter equation.
# T1 sequence (Q9NZ08 37-941): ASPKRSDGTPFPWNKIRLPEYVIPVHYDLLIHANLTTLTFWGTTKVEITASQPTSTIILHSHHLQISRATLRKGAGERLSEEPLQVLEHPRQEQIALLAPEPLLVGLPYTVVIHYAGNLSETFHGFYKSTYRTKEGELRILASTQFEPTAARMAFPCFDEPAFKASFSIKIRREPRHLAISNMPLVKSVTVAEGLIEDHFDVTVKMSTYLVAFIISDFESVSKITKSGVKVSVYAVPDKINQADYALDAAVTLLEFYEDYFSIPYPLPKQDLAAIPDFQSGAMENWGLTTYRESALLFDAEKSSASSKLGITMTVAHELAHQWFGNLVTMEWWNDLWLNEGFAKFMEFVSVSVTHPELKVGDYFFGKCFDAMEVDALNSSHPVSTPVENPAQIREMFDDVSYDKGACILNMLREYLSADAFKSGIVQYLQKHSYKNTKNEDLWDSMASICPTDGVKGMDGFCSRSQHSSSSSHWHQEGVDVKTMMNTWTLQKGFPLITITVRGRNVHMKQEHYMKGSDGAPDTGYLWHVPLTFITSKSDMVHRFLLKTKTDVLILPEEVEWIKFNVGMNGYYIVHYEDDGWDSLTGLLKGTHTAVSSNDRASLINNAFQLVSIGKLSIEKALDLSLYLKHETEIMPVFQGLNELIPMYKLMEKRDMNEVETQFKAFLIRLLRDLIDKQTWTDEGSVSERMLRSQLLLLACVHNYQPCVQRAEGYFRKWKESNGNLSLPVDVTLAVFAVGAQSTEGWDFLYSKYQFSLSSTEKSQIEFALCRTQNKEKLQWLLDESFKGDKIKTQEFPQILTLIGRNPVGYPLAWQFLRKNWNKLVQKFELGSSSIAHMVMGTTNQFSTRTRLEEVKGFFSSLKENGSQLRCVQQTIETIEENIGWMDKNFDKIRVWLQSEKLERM
row,IC50 [nM],Compound
1,1 to 5,"CO[C@@H]1CCC[C@@H]1Oc1cc(Cl)c(C#N)cc1NS(=O)(=O)c1cc(C(=O)O)ccc1C1CC1 (single isomer, unassigned) [Example 143, 3-(N-(4-chloro-5-cyano-2-((cis-2-methoxycyclopentyl)oxy)phenyl)sulfa-moyl)-4-cyclopropylbenzoic acid]"
2,< 1,"N#Cc1cc(NS(=O)(=O)c2cc(C(=O)O)ccc2C2CC2)c(OC2CCCC2)cc1Cl [Example 1, 3-(N-(4-chloro-5-cyano-2-(cyclopentyloxy)phenyl)sulfamoyl)-4-cyclopropylbenzoic acid]"
3,> 5,"COc1ccc(C(=O)O)cc1S(=O)(=O)Nc1cc(C(F)(F)F)ccc1OC1CCCC1 [Example 2, 3-(N-(2-(cyclopentyloxy)^−5-(trifluoromethyl)phenyl)sulfamoyl)-4-methoxybenzoic acid]"
4,> 5,"COc1ccc(C(=O)O)cc1S(=O)(=O)Nc1cc(C(F)(F)F)ccc1OC1CCCCC1 [Example 3, 3-(N-(2-(cyclohexyloxy)^−5-(trifluoromethyl)phenyl)sulfamoyl)-4-methoxybenzoic acid]"
5,1 to 5,"O=C(O)c1ccc(C2CC2)c(S(=O)(=O)Nc2cc(C(F)(F)F)ccc2OC2CCCC2)c1 [Example 4, 3-(N-(2-(cyclopentyloxy)^−5-(trifluoromethyl)phenyl)sulfamoyl)-4-cyclopropylbenzoic acid]"
6,> 5,"CCc1ccc(C(=O)O)cc1S(=O)(=O)Nc1cc(C(F)(F)F)ccc1OC1CCCC1 [Example 5, 3-(N-(2-(cyclopentyloxy)−5-(trifluoromethyl)phenyl)sulfamoyl)-4-ethylbenzoic acid]"
7,1 to 5,"N#Cc1ccc(OC2CCCC2)c(NS(=O)(=O)c2cc(C(=O)O)ccc2C2CC2)c1 [Example 6, 3-(N-(5-cyano-2-(cyclopentyloxy)phenyl)sulfamoyl)-4-cyclopropylbenzoic acid]"
8,< 1,"O=C(O)c1ccc(C2CC2)c(S(=O)(=O)Nc2cc(-n3cnnn3)ccc2OC2CCCC2)c1 [Example 8, 3-(N-(2-(cyclopentyloxy)-5-(1H-tetrazol-1-yl)phenyl)sulfamoyl)-4-cyclopropylbenzoic acid]"
9,< 1,"O=C(O)c1ccc(C2CC2)c(S(=O)(=O)Nc2cc(-n3cnnn3)c(F)cc2OC2CCCC2)c1 [Example 9, 3-(N-(2-(cyclopentyloxy)-4-fluoro-5-(1H-tetrazol-1-yl)phenyl)sulfamoyl)-4-cyclopropylbenzoic acid]"
10,< 1,"O=C(O)c1ccc(C2CC2)c(S(=O)(=O)Nc2cc(-n3cnnn3)c(Cl)cc2OC2CCCC2)c1 [Example 10, 3-(N-(4-chloro-2-(cyclopentyloxy)−5-(1H-tetrazol-1-yl)phenyl)sulfamoyl)-4-cyclopropylbenzoic acid]"
11,< 1,"N#Cc1cc(NS(=O)(=O)c2cc(C(=O)O)ccc2C2CC2)c(OC2CCCC2)cc1F [Example 11, 3-(N-(5-cyano-2-(cyclopentyloxy)-4-fluorophenyl)sulfamoyl)-4-cyclopropylbenzoic acid]"
12,> 5,"N#Cc1cc(F)c(OC2CCCC2)c(NS(=O)(=O)c2cc(C(=O)O)ccc2C2CC2)c1 [Example 14, 3-(N-(5-cyano-2-(cyclopentyloxy)−3-fluorophenyl)sulfamoyl)-4-cyclopropylbenzoic acid]"
13,> 5,"Cc1cc(C#N)cc(NS(=O)(=O)c2cc(C(=O)O)ccc2C2CC2)c1OC1CCCC1 [Example 15, 3-(N-(5-cyano-2-(cyclopentyloxy)−3-methylphenyl)sulfamoyl)-4-cyclopropylbenzoic acid]"
14,< 1,"N#Cc1cc(NS(=O)(=O)c2cc(C(=O)O)c(F)cc2C2CC2)c(OC2CCCC2)cc1Cl [Example 16, 5-(N-(4-chloro-5-cyano-2-(cyclopentyloxy)phenyl)sulfamoyl)-4-cyclopropyl-2-fluorobenzoic acid]"
15,< 1,"N#Cc1cc(NS(=O)(=O)c2cc(C(=O)O)cc(F)c2C2CC2)c(OC2CCCC2)cc1Cl [Example 18, 3-(N-(4-chloro-5-cyano-2-(cyclopentyloxy)phenyl)sulfamoyl)-4-cyclopropyl-5-fluorobenzoic acid]"
16,1 to 5,"N#Cc1cc(Cl)c(OC2CCCC2)c(NS(=O)(=O)c2cc(C(=O)O)ccc2C2CC2)c1 [Example 19, 3-(N-(3-chloro-5-cyano-2-(cyclopentyloxy)phenyl)sulfamoyl)-4-cyclopropylbenzoic acid]"
17,< 1,"O=C(O)c1ccc(C2CC2)c(S(=O)(=O)Nc2cc(-c3ccns3)ccc2OC2CCCC2)c1 [Example 20, 3-(N-(2-(cyclopentyloxy)-5-(isothiazol-5-yl)phenyl)sulfamoyl)-4-cyclopropylbenzoic acid]"
18,1 to 5,"O=C(O)c1ccc(C2CC2)c(S(=O)(=O)Nc2cc(-c3ccns3)c(F)cc2OC2CCCC2)c1 [Example 21, 3-(N-(2-(cyclopentyloxy)-4-fluoro-5-(isothiazol-5-yl)phenyl)sulfamoyl)-4-cyclopropylbenzoic acid]"
19,< 1,"O=C(O)c1ccc(C2CC2)c(S(=O)(=O)Nc2cc(-c3ccns3)c(Cl)cc2OC2CCCC2)c1 [Example 22, 3-(N-(4-chloro-2-(cyclopentyloxy)−5-(isothiazol-5-yl)phenyl)sulfamoyl)-4-cyclopropylbenzoic acid]"
20,< 1,"Cc1oncc1-c1ccc(OC2CCCC2)c(NS(=O)(=O)c2cc(C(=O)O)ccc2C2CC2)c1 [Example 23, 3-(N-(2-(cyclopentyloxy)-5-(5-methylisoxazol-4-yl)phenyl)sulfamoyl)-4-cyclopropylbenzoic acid]"
21,< 1,"Cc1oncc1-c1cc(NS(=O)(=O)c2cc(C(=O)O)ccc2C2CC2)c(OC2CCCC2)cc1F [Example 24, 3-(N-(2-(cyclopentyloxy)-4-fluoro-5-(5-methylisoxazol-4-yl)phenyl)sulfamoyl)-4-cyclopropylbenzoic acid]"

row,Compound,IC50 [nM]
1,"COC1CCC1Oc1cc(Cl)c(C#N)cc1NS(=O)(=O)c1cc(C(=O)O)ccc1C1CC1 (single isomer, unassigned) [Example 144, 3-(N-(4-chloro-5-cyano-2-(cis-2-methoxycyclobutoxy)phenyl)sulfamoyl)-4-cyclopropylbenzoic acid]",< 1
2,"COC1CCC1Oc1cc(Cl)c(C#N)cc1NS(=O)(=O)c1cc(C(=O)O)ccc1C1CC1 (single isomer, unassigned) [Example 145, 3-(N-(4-chloro-5-cyano-2-(cis-2-methoxycyclobutoxy)phenyl)sulfamoyl)-4-cyclopropylbenzoic acid]",1 to 5
3,"CCc1ccc(C(=O)O)cc1S(=O)(=O)Nc1cc(C(F)(F)F)ccc1OC1CCC1 [Example 7, 3-(N-(2-cyclobutoxy-5-(trifluoromethyl)phenyl)sulfamoyl)-4-ethylbenzoic acid]",> 5
4,"N#Cc1cc(NS(=O)(=O)c2cc(C(=O)O)ccc2C2CC2)c(OC2CCC2)cc1Cl [Example 12, 3-(N-(4-chloro-5-cyano-2-cyclobutoxyphenyl)sulfamoyl)-4-cyclopropylbenzoic acid]",< 1
5,"N#Cc1cc(NS(=O)(=O)c2cc(C(=O)O)ccc2C2CC2)c(OC2CC(F)(F)C2)cc1Cl [Example 13, 3-(N-(4-chloro-5-cyano-2-(3,3-difluorocyclobutoxy)phenyl)sulfamoyl)-4-cyclopropylbenzoic acid]",1 to 5
6,"N#Cc1cc(NS(=O)(=O)c2cc(C(=O)O)c(F)cc2C2CC2)c(OC2CC(F)(F)C2)cc1Cl [Example 17, 5-(N-(4-chloro-5-cyano-2-(3,3-difluorocyclobutoxy)phenyl)sulfamoyl)-4-cyclopropyl-2-fluorobenzoic acid]",< 1
